Results reported in patent publication US9068971B2, “Methods for treating and/or limiting development of diabetes” (BioCrine AB, priority 2012, dated 2015).
“Also recorded” adds a separate entry of the source.

What was measured:
β cell CaV channels [1] = experiment: Perforated whole-cell patch-clamp of Ca2+ currents in RINm5F cells; assay type: cell-based, rat; settings: for effect on ApoCIII-induced hyperactivation of β cell CaV channels (enhancement of whole-cell Ca2+ currents): ApoCIII 20 μg/ml overnight with inhibitor cotreatment or after siRNA pretransfection; for whole-cell Ca2+ current density under basal conditions, inhibitor(s) versus vehicle: in the absence of ApoCIII; for whole-cell Ca2+ current density, ApoCIII alone compared with ApoCIII plus inhibitor(s): ApoCIII 20 μg/ml
Description: (§1) Islets of Langerhans were isolated from adult male and female mice and dispersed into single β cells. RINm5F cells at about 70% confluency were trypsinized. The resultant suspension of cells was seeded into Petri dishes or 12-well plates. The cells were cultivated in RPMI 1640 medium supplemented with 10% fetal bovine serum, 2 mM L-glutamine, and 100 U/100 μg/ml penicillin/streptomycin (Invitrogen, Carlsbad, Calif.) and maintained at 37° C. in a humidified 5% CO2 incubator. They were grown overnight and then subjected to siRNA transfection. For patch-clamp analysis, cells underwent overnight treatment with ApoCIII, the PKA inhibitor H-89 (Calbiochem, La Jolla, Calif.), the PKC inhibitor calphostin C (Calbiochem), the Src kinase inhibitor PP2 (Calbiochem) and the CaV1 channel blocker nimodipine (Calbiochem) in RPMI medium at final concentrations of 20 μg/ml, 0.5 μM, 0.1 μM, 0.1 μM and 5 μM, respectively. ApoCIII was dissolved in 0.1% triflouroacetic acid (TFA) to make a stock solution of 1 mg/ml, whereas H-89, calphostin C, PP2 and nimodipine were dissolved in dimethyl sulfoxide (DMSO) to form stock solutions of 5 mM, 1 mM, 1 mM and 10 mM, respectively. 0.002% TFA and/or 0.03% DMSO were used as vehicle controls.
Two pairs of 21-mer siRNA duplexes targeting the rat β1 integrin (β1 integrin siRNA #1, ID127971 and (31 integrin siRNA #2, ID127972) and SRBI (ID128929) were designed and chemically synthesized by Applied Biosystems/Ambion (Austin, Tex.). Their sequences were subjected to BLAST search to ensure their specificity. Silencer® Select Negative Control siRNA (4390843), not targeting any gene product, and Silencer® Select GAPDH Positive Control siRNA (4390849), efficiently silencing GAPDH in human, mouse, and rat cells, were purchased from Applied Biosystems/Ambion (Austin, Tex.). RINm5F cells were reversely transfected with Lipofectamine™ RNAiMAX. Briefly, negative control siRNA, β1 integrin siRNA #1, β1 integrin siRNA #2 or SRBI siRNA was mixed with Lipofectamine™ RNAiMAX followed by 20-min incubation at room temperature. Subsequently, cells were added to the siRNA/Lipofectamine™ RNAiMAX mixtures followed by gentle agitation and kept at 37° C. in a humidified 5% CO2 incubator. After 72 h, the transfected cells were grown to about 70% confluency and subjected to immunoblot assay or different treatments.
(§2) Mouse islet cells and RINm5F cells following different treatments were subjected to single channel and whole-cell patch-clamp measurements. Cell-attached and perforated whole-cell patch-clamp configurations were employed. Electrodes were made from borosilicate glass capillaries, fire-polished and coated with Sylgard close to their tips. Some of them were filled with a solution containing (in mM) 110 BaCl2, 10 TEA-Cl, and 5 HEPES (pH 7.4 with Ba(OH)2) for single channel measurements. Others were filled with a solution composed of (in mM) 76 Cs2SO4, 1 MgCl2, 10 KCl, 10 NaCl, and 5 HEPES (pH 7.35 with CsOH), as well as amphotericin B (0.24 mg/ml) for whole-cell current recordings. Electrode resistance ranged between 4 and 6 MΩ when they were filled with electrode solutions and immersed in bath solutions. The electrode offset potential was corrected in bath solutions prior to gigaseal formation. Single-channel recordings were performed with cells bathed in a depolarizing external recording solution, containing (in mM) 125 KCl, 30 KOH, 10 EGTA, 2 CaCl2, 1 MgCl2, and 5 HEPES-KOH (pH 7.15). This solution was used to bring the intracellular potential to 0 mV. For perforated whole-cell current measurements, the cells were bathed in a solution containing (in mM) 138 NaCl, 5.6 KCl, 1.2 MgCl2, 10 CaCl2, 5 HEPES (pH 7.4). Single channel and whole-cell currents were recorded with an Axopatch 200B amplifier (Molecular Devices, Foster City, Calif.) and an EPC-9 patch clamp amplifier (HEKA Elektronik, Lambrecht/Pfalz, Germany), respectively, at room temperature (about 22° C.). […]

CaV1 channels [2] = experiment: Cell-attached single channel patch-clamp of unitary CaV1 channel currents in mouse islet β cells; assay type: cell-based; settings: ApoCIII 20 μg/ml overnight versus control vehicle
Description: as §1
as §2, with “For perforated whole-cell current measurements, the cells were bathed in a solution containing (in mM) 138 NaCl, 5.6 KCl, 1.2 MgCl2, 10 CaCl2, 5 HEPES (pH 7.4).” left out
(§3) All data are presented as mean±SEM. Statistical significance was determined by one-way ANOVA, followed by least significant difference (LSD) test. […]

CaV1 channels [3] = experiment: Cell-attached single channel patch-clamp of unitary CaV1 channel currents in RINm5F cells; assay type: cell-based, rat; settings: ApoCIII 20 μg/ml overnight versus vehicle solution
Description: as §1
as §2, with “For perforated whole-cell current measurements, the cells were bathed in a solution containing (in mM) 138 NaCl, 5.6 KCl, 1.2 MgCl2, 10 CaCl2, 5 HEPES (pH 7.4).” left out
as §3

CaV1.2 = experiment: Immunoblot of CaV1.2 subunits in RINm5F cell homogenates; assay type: cell-based, rat; settings: overnight ApoCIII
Description: (§4) Islets of Langerhans were isolated from adult male and female mice and dispersed into single β cells. RINm5F cells at about 70% confluency were trypsinized. The resultant suspension of cells was seeded into Petri dishes or 12-well plates. The cells were cultivated in RPMI 1640 medium supplemented with 10% fetal bovine serum, 2 mM L-glutamine, and 100 U/100 μg/ml penicillin/streptomycin (Invitrogen, Carlsbad, Calif.) and maintained at 37° C. in a humidified 5% CO2 incubator. They were grown overnight and then subjected to siRNA transfection. […]
(§5) RINm5F cells following different treatments were lysed in a lysis buffer (pH 7.5) consisting of 50 mM HEPES, 150 mM NaCl, 1 mM EGTA, 1 mM EDTA, 10% glycerol, 1% triton X-100, 1 mM PMSF and a protease inhibitor cocktail (Roche Diagnostics, Mannheim, Germany). […] The protein concentration of the resulting samples was determined with Bio-Rad protein assay reagent (Bio-Rad, Hercules, Calif.). […]
as §3

CaV1.3 = experiment: Immunoblot of CaV1.3 subunits in RINm5F cell homogenates; assay type: cell-based, rat; settings: overnight ApoCIII
Description: as §4, §5, §3

β cell CaV channels [4] = settings: mouse islet β cell; previous work; cited from earlier work
SRBI [5] = biological target: T1, SRBI (Homo sapiens, UniProt Q8WTV0); settings: cited from earlier work
T1 sequence (Q8WTV0 1-509 isoform Q8WTV0-2): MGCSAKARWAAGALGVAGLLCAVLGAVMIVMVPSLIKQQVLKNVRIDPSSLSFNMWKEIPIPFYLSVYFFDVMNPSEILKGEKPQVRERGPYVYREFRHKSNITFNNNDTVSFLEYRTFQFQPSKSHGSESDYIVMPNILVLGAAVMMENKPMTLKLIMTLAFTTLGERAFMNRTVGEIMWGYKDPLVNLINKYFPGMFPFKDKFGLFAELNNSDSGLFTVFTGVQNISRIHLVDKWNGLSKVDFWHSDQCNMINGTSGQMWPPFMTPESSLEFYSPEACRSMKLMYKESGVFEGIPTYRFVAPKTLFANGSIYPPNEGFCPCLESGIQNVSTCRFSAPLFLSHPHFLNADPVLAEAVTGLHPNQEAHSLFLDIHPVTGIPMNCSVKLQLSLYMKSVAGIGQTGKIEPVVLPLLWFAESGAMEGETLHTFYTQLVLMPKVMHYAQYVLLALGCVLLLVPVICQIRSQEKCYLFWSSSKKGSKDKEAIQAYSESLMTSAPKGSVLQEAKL

SRBI [6] = settings: cited from earlier work
[7] = overnight, H-89 0.5 μM, calphostin C 0.1 μM, PP2 0.1 μM

Compound: calphostin C
- effect on ApoCIII-induced hyperactivation of β cell CaV channels (enhancement of whole-cell Ca2+ currents) (β cell CaV channels [1]): does not affect
- whole-cell Ca2+ current density under basal conditions, inhibitor(s) versus vehicle (β cell CaV channels [1]): similar
- whole-cell Ca2+ current density, ApoCIII alone compared with ApoCIII plus inhibitor(s) (β cell CaV channels [1]; [7]): no difference
- whole-cell Ca2+ current density, ApoCIII/CalpC versus vehicle-treated control cells (β cell CaV channels [1]; voltage range from 20 to 50 mV): increased significantly

Compound: ApoCIII: protein comprising the amino acid sequence shown in SEQ ID NO:2 (Human), SEQ ID NO:4 (Rat) or SEQ ID NO:6 (Macaque)
- mean closed time of unitary CaV1 channels (CaV1 channels [2]): significantly shorter
- mean open time of unitary CaV1 channels (CaV1 channels [2]): significantly greater
- open probability of unitary CaV1 channels (CaV1 channels [2]): significantly greater
- average number of unitary CaV1 channels (CaV1 channels [2]; plasma membrane patches): significantly greater
- channel number of CaV1 channels (CaV1 channels [3]): significantly increased
- mean closed time of CaV1 channels (CaV1 channels [3]): shortened
- mean open time of CaV1 channels (CaV1 channels [3]): prolonged
- open probability of CaV1 channels (CaV1 channels [3]): elevated
- whole-cell Ca2+ current density, ApoCIII group versus control group (β cell CaV channels [1]; no voltage range printed (FIG. 4d)): Significantly higher
- whole-cell Ca2+ current density, ApoCIII-treated versus vehicle-treated control cells (β cell CaV channels [1]; voltage range 10-50 mV): significantly higher; also recorded: increased significantly; also recorded: significantly elevated; also recorded: significantly increased
- whole-cell Ca2+ current density, ApoCIII group versus control group (β cell CaV channels [1]; voltage range from 10 to 30 mV): significantly higher
- relative abundance of CaV1.2 subunits, ApoCIII versus vehicle incubation (CaV1.2): no significant difference
- relative abundance of CaV1.3 subunits, ApoCIII versus vehicle incubation (CaV1.3): no significant difference
- whole-cell Ca2+ currents after ApoCIII incubation (β cell CaV channels [4]): significantly enhances

Compound: O=S(=O)(NCCNC/C=C/c1ccc(Br)cc1)c1cccc2cnccc12 [H-89]
- effect on ApoCIII-induced hyperactivation of β cell CaV channels (enhancement of whole-cell Ca2+ currents) (β cell CaV channels [1]): marginally reduced
- whole-cell Ca2+ current density under basal conditions, inhibitor(s) versus vehicle (β cell CaV channels [1]): did not significantly influence
- whole-cell Ca2+ current density, ApoCIII alone compared with ApoCIII plus inhibitor(s) (β cell CaV channels [1]; [7]): did not significantly differ
- whole-cell Ca2+ current density, ApoCIII plus inhibitor(s) compared with control cells (β cell CaV channels [1]; overnight, nimodipine 5 μM (control = Nim alone), H-89 0.5 μM, calphostin C 0.1 μM, PP2 0.1 μM): did not significantly differ

Compound: CC(C)(C)n1nc(-c2ccc(Cl)cc2)c2c(N)ncnc21 [PP2]
- effect on ApoCIII-induced hyperactivation of β cell CaV channels (enhancement of whole-cell Ca2+ currents) (β cell CaV channels [1]): tendency to decrease
- whole-cell Ca2+ current density under basal conditions, inhibitor(s) versus vehicle (β cell CaV channels [1]): similar
- whole-cell Ca2+ currents, ApoCIII and PP2 cotreatment versus vehicle-treated control cells (β cell CaV channels [1]; voltage range 20-40 mV): significantly larger

Compound: CC(C)(C)OC(=O)N1CCN(c2ccc(NC(=O)c3cc([N+](=O)[O-])ccc3Cl)cc2)CC1 [R-138329, N-[4-(4-tert-Butoxycarbonylpiperazin-1-yl)phenyl]-(2-chloro-5-nitrophenyl)carboxamide]
- SRBI receptor activity (SRBI [5]): block

Compound: interferon alpha
- SRBI expression (SRBI [6]): inhibit
